Entries after “also recorded” stand apart in the source; their conditions may differ.
Experiments:
Type in all cases: in vivo
CGRP receptor [1] = molecular target: T1, CGRP receptor (Mus musculus, UniProt Q9R1W5+Q9WTJ5); assay: Body size / weight gain after intranasal BIBN-4096 in NEHI mouse model; conditions: analyzed at P22
T1 construct: from tissue; host or cells: Live mouse pups on a B6 background (Nkx2-1 R191L NEHI model and control genotypes); lung, intranasal dosing
Method: (§1) BIBN-4096 (Fisher Scientific #45-611-0) was dissolved in 100% DMSO (Sigma-Aldrich D2650) and further diluted to working solution with saline before use. 10 ul of 0.3 mg/ml BIBN-4096 was intranasally administrated to pups at P10, P12, P14, P16 and P18.

CGRP receptor [2] = molecular target: T1, CGRP receptor; assay: Lung wet-to-dry ratio (pulmonary edema) after intranasal BIBN-4096 in NEHI mouse model; conditions: Nkx2-1^L/L mutants; intranasal 10 ul of 0.3 mg/ml at P10, P12, P14, P16, P18; analyzed at P22; vs vehicle DMSO
Method: Each lung was removed from sacrificed mouse right after euthanasia. Excessive blood was removed by kimwipe and wet weight mw was measured right after dissection. The lung was then placed on the foil at 70° C. for 24 hours. Dry weight […] was then measured by reweighing the dried lung. Wet-to-dry ratio was calculated as: W/D ratio=mw/md.
as §1

CGRP receptor [3] = molecular target: T1, CGRP receptor; assay: Oxygen saturation (SpO2) by pulse-ox after intranasal BIBN-4096 in NEHI mouse model; conditions: Nkx2-1^L/L mutants; intranasal 10 ul of 0.3 mg/ml at P10-P18; analyzed at P22; vs vehicle DMSO
Method: Pups were shaved and […] by isoflurane while pulse-ox (MouseOxPlus, Starr Life Sciences) was performing. The SpO2 reads were recorded after 5 minutes of stable measurement.
as §1

T1 sequence (Q9R1W5 23-463): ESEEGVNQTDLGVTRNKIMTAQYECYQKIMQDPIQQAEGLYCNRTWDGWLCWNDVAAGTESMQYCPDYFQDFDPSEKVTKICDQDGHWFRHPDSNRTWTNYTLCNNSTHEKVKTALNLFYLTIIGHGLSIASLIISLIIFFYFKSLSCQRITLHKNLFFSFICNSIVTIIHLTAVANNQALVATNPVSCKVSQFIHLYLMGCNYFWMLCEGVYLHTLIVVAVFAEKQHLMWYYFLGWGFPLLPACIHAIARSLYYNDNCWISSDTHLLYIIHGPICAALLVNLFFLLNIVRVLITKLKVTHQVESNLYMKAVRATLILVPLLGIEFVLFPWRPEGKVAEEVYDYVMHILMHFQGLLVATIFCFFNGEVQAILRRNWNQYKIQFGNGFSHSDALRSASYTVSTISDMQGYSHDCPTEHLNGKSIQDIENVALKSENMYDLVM
T1 sequence (Q9WTJ5 27-148): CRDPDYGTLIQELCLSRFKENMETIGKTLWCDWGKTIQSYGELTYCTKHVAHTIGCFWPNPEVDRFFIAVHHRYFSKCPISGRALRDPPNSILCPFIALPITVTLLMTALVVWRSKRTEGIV

## NCCCC[C@H](NC(=O)[C@@H](Cc1cc(Br)c(O)c(Br)c1)NC(=O)N1CCC(N2Cc3ccccc3NC2=O)CC1)C(=O)N1CCN(c2ccncc2)CC1 [BIBN-4096, N-((1R)-2-(((1S)-5-amino-1-((4-(pyridin-4-yl)piperazin-1-yl)carbonyl)pentyl)amino)-1-(3,5-dibromo-4-hydroxybenzyl)-2-oxoethyl)-4-(2-oxo-1,4-dihydroquinazolin-3 (2H)-yl) piperidine-1-carboxamide]
CGRP receptor [1]; Nkx2-1^L/L mutants, intranasal 10 ul of 0.3 mg/ml at P10-P18, vs vehicle DMSO
  Body size / weight gain: clear reversal; also recorded: improved size
CGRP receptor [1]; control genotype groups, intranasal P10-P18, vs vehicle DMSO (FIG. 9B)
  Effects of treatment in control genotype groups: did not lead to detectable effects
CGRP receptor [2]
  Lung wet-to-dry ratio (pulmonary edema): clear reversal; also recorded: attenuation of fluid in lung
CGRP receptor [3]
  Oxygen saturation measured by pulse-ox (gas-exchange): clear reversal; also recorded: improved gas-exchange efficiency

Reference: patent publication US12521389B2, “Therapeutic approach to lung disease” (The Regents of the University of California, priority 2019, dated 2026)
